Laboratory results: patent publication US20260256756A1, “USE OF PIPERIDINE ALKENE COMPOUND IN PREPARATION OF DRUG FOR TREATING CANCER” (JIANGSU HANSOH PHARMACEUTICAL GROUP CO., LTD., priority 2023, published 2026)

Columns and labels:
[1] = test system: human colorectal cancer cell line DLD-1 BRCA2−/− xenograft tumor; test: Subcutaneous xenograft tumor model of human colorectal cancer cell line DLD-1 BRCA2−/−; type: in vivo, BALB/c nude mice; conditions: DLD-1 BRCA2 deletion
Excerpt: • 1. Experimental objective: To evaluate the in vivo efficacy of compound 1 in a subcutaneous xenograft tumor model of human colorectal cancer cell line DLD-1 BRCA2^−/− in nude mice. • 2. Reagent • RPMI-1640 medium (22400-089, Gibco), fetal bovine serum (FBS) (10099-141C, Gibco) • Phosphate buffer (PBS, 10010-023, Gibco), HPMC (D180HB4005, Shanghai Colorcon Coating Technology Ltd.) • 0.25% Trypsin-EDTA (25200-056, Gibco), Pen Strep (P/S) (15140-122, Gibco) • 3. Experimental operations and data processing • 3.1 Animals: BALB/c nude mice, 6-8 weeks old, female, purchased from the Laboratory Animal Business Department of Shanghai Institute of Planned Parenthood Research. • 3.2 Cell culture and cell suspension preparation • a. A vial of DLD-1 BRCA2^−/− cells was taken from a cell bank, the cells were thawed with RPMI-1640 medium (RPMI-1640+10% FBS), and the thawed cells were placed in a cell culture flask (with the cell type, date, the name of the culture operator, etc., being marked on the wall of the flask), which were placed in a CO2 incubator for culturing (wherein the temperature of the incubator was 37° C., and the CO2 concentration was 5%). • b. The cells were passaged every three days, and after passage, the cells were placed in the CO2 incubator to continue the culture. This process was repeated until the cell number met the requirements for in vivo efficacy. • c. The cultured cells were collected, counted using a full-automatic cell counter, and resuspended with PBS on the basis of the counting results to prepare a cell suspension (at a density of 5×10^7/mL), which was then placed in an ice box for later use. • 3.3 Cell inoculation • a. Before inoculation, the nude mice were marked with disposable universal ear tags for mice and rats. • b. At the time of inoculation, the cell suspension was mixed uniformly, 0.1-1 mL of the cell suspension was aspirated using a 1 mL syringe with air bubbles expelled, and the syringe was then placed on an ice bag for later use. • c. The nude mouse was secured with the left hand, the right dorsal area near the right shoulder (inoculation site) of the nude mouse was disinfected with a 75% alcohol cotton ball, and inoculation was initiated after 30 seconds. • d. The experimental nude mice were inoculated sequentially (0.1 mL of cell suspension per mouse). • 3.4 Tumor measurement, grouping and administration in tumor-bearing mice • a. Tumor was measured on days 10-18 after inoculation depending on the tumor growth, and the tumor size was calculated.
tumor volume (mm^3)=length (mm)×width (mm)×width (mm)/2 Tumor volume calculation: • b. According to the body weight of tumor-bearing mice and the size of the tumor, the mice were grouped by random grouping. • c. According to the grouping results, the test drug was started to be administered (administration method: oral administration; administration volume: 10 mL/kg; administration frequency: once/day; administration cycle: 28 days; vehicle: 0.5% HPMC). • d. Tumor measurement and weighing were performed twice a week after starting administration of test drugs. • e. The animals were euthanized at the end of the experiment. • f. Data processing was performed using software such as GraphPad Prism. The tumor inhibitory efficacy of the compound was evaluated by TGI (%) and ΔT/ΔC (%). ΔT/ΔC (%)=(T−T0)/(C−C0)×100, where T and C are the tumor volumes of the treatment group and the vehicle control group at the end of the experiment, respectively, and T0 and C0 are the tumor volumes of the treatment group and the vehicle control group at the beginning of the experiment, respectively. Tumor growth inhibition (TGI) (%)=100−ΔT/ΔC (%). Tumor growth inhibition (TGI) (%)=100−(T−T0)/T0×100 when tumor regression occurs • 4. Experimental results and conclusions

[2] = test system: BRCA2 Knockout DLD-1 cells; test: In vitro proliferation inhibition (CellTiter-Glo), BRCA2 Knockout DLD-1; type: cell-based; conditions: Homo sapiens; DLD-1, colorectal cancer, BRCA2 deletion; 6-10 days culture
Excerpt: […]
(§1) Experimental data processing method: The luminescence signal value was used to calculate the inhibition rate. […]

CAOV-3 cells = test: In vitro proliferation inhibition (CellTiter-Glo), CAOV-3; type: cell-based; conditions: Homo sapiens; CAOV-3, ovarian cancer, HRD-positive (low expression of ATM protein); 6-10 days culture
Excerpt: […]
as §1

MX-1 cells = test: In vitro proliferation inhibition (CellTiter-Glo), MX-1; type: cell-based; conditions: Homo sapiens, MX1; MX-1, triple-negative breast cancer, BRCA1 mutation; 6-10 days culture
Excerpt: […]
as §1

[3] = 0.3 mg/kg oral once/day, Day 28
[4] = 100 mg/kg oral once/day, Day 28

| Compound | Tumor volume (Mean ± SEM) ([1]; 0.3 mg/kg oral once/day, Day 0) | T/C [1, 3] | TGI [1, 3] | Tumor volume (Mean ± SEM) [1, 3] | IC50 [2] | IC50 (CAOV-3 cells) | IC50 (MX-1 cells) | Tumor volume (Mean ± SEM) ([1]; 100 mg/kg oral once/day, Day 0) | T/C [1, 4] | TGI [1, 4] | Tumor volume (Mean ± SEM) [1, 4] |
| --- | --- | --- | --- | --- | --- | --- | --- | --- | --- | --- | --- |
| CCc1cc2ncc(CN3CCN(c4ccc(C(=O)NC)nc4)CC3)cc2[nH]c1=O [AZD5305] | 154 ± 12 mm^3 | 6.20% | 140.20% | 92 ± 22 mm^3 | 0.0026 ± 0.0006 µM | 0.004 ± 0.0008 µM | 0.0041 ± 0.0016 µM |  |  |  |  |
| O=C(c1cc(Cc2n[nH]c(=O)c3ccccc23)ccc1F)N1CCN(C(=O)C2CC2)CC1 [Olaparib] |  |  |  |  | 0.16 ± 0.066 µM | 0.151 ± 0.018 µM | 0.246 ± 0.104 µM | 154 ± 13 mm^3 | 63.43% | 40.81% | 942 ± 112 mm^3 |
